Converted amounts (≈) assume the structure as drawn. Like-named read-outs stand apart in the source and are kept apart here.
Key:
[1] = test system: A. baumannii NCTC 13423; assay: Antibacterial activity, pre-exposure; format: cell-based, Acinetobacter baumannii; conditions: for Average inhibition %, biofilms viability / Average inhibition %, planktonic cells viability / inhibition at 10 µM / inhibition at 15 µM / inhibition at 25 µM / inhibition at 50 µM: A. baumannii NCTC 13423, pre-exposure, ± SD; for inhibition at 10 µM / inhibition at 15 µM / inhibition at 25 µM / inhibition at 50 µM / MIC: Acinetobacter baumannii, NCTC13423
How it was run: (§1)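 Pre-exposure format: compound and bacterial culture co-incubated 18 h, 37 °C, aerobic, 220 rpm. Planktonic: turbidity (OD) plus resazurin viability, 20 μM final. Biofilm: PBS wash, 20 μM resazurin, then ethanol fixation and crystal violet staining, A595.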

[2] = test system: P. aeruginosa ATCC 9027; assay: Antibacterial activity, pre-exposure; format: cell-based, Pseudomonas aeruginosa; conditions: for Average inhibition %, biofilms viability / Average inhibition %, planktonic cells viability / inhibition at 50 µM / inhibition at 100 µM / inhibition at 150 µM / inhibition at 200 µM: P. aeruginosa ATCC 9027, pre-exposure, ± SD; for MIC / inhibition at 50 µM / inhibition at 100 µM / inhibition at 150 µM / inhibition at 200 µM: Pseudomonas aeruginosa; for inhibition at 50 µM / inhibition at 100 µM / inhibition at 150 µM / inhibition at 200 µM: ATCC9027
How it was run: as §1

[3] = test system: S. aureus ATCC 25923; assay: Antibacterial activity, post-exposure on preformed 18-h-old biofilms; format: cell-based, Staphylococcus aureus; conditions: ± SD; for inhibition at 25 µM / inhibition at 50 µM / inhibition at 100 µM / inhibition at 200 µM: Staphylococcus aureus; for inhibition at 25 µM: ATCC25923, 25 µM; for inhibition at 50 µM: ATCC25923, 50 µM; for inhibition at 100 µM: ATCC25923, 100 µM; for inhibition at 200 µM: ATCC25923, 200 µM
How it was run: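 Compounds were applied to preformed 18-h biofilms after medium change and left 24 h. Read-outs: planktonic OD plus resazurin fluorescence (20 μM), biofilm metabolic activity by resazurin 30 min at 37 °C, then biomass by crystal violet absorbance at 595 nm after ethanol fixation.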

[4] = test system: S. aureus ATCC 25923; assay: Antibacterial activity, pre-exposure (planktonic cells and biofilm formation); format: cell-based, Staphylococcus aureus; conditions: for MIC / inhibition at 5 µM / inhibition at 10 µM / inhibition at 15 µM / inhibition at 25 µM: Staphylococcus aureus, ATCC25923; for inhibition at 5 µM / inhibition at 10 µM / inhibition at 15 µM / inhibition at 25 µM / Average inhibition %, biofilms viability / Average inhibition %, planktonic cells viability: pre-exposure, ± SD
How it was run: as §1

[5] = 10 µM, read-out: Average inhibition %, biofilms biomass
[6] = 10 µM, read-out: Average inhibition %, planktonic cells turbidity
[7] = 15 µM, read-out: Average inhibition %, biofilms biomass
[8] = 15 µM, read-out: Average inhibition %, planktonic cells turbidity
[9] = 25 µM, read-out: Average inhibition %, biofilms biomass
[10] = 25 µM, read-out: Average inhibition %, planktonic cells turbidity
[11] = 50 µM, read-out: Average inhibition %, biofilms biomass
[12] = 50 µM, read-out: Average inhibition %, planktonic cells turbidity
[13] = read-out: Average inhibition %, biofilms biomass
[14] = read-out: Average inhibition %, planktonic cells turbidity

`CCCCCCCCOc1ccc(CCC(N)(CO)CO)cc1` [Compound 48, 2-Amino-2-[4-(octyloxy)phenethyl]propane-1,3-diol] was tested, and the “Average inhibition %, biofilms viability” value ([1]; 10 µM) was 0 ± 0%, the “Average inhibition %, planktonic cells viability” value ([1]; 10 µM) was 5.1 ± 0.7% and the “Average inhibition %, biofilms viability” value ([1]; 15 µM) was 1.4 ± 1.2%. For the same compound, the “Average inhibition %, planktonic cells viability” value ([1]; 15 µM) was 0 ± 0%, the “Average inhibition %, biofilms viability” value ([1]; 25 µM) was 68.3 ± 27.4% and the “Average inhibition %, planktonic cells viability” value ([1]; 25 µM) was 48.6 ± 48.9%. The “Average inhibition %, biofilms viability” value ([1]; 50 µM) was 93.8 ± 1.3%, the “Average inhibition %, planktonic cells viability” value ([1]; 50 µM) was 97.8 ± 0.3% and the inhibition at 10 µM [1, 5] was 0%. It also gave an inhibition at 10 µM [1, 6] of 0%, an inhibition at 15 µM [1, 7] of 0% and an inhibition at 15 µM [1, 8] of 0%. The inhibition at 25 µM [1, 9] was 38.9 ± 34.1%, the inhibition at 25 µM [1, 10] was 63.2 ± 30.2% and the inhibition at 50 µM [1, 11] was 56.9 ± 19.5%. For the same compound, the inhibition at 50 µM [1, 12] was 94.4 ± 2.3%, the MIC ([1]; pre-exposure, Inactive = no activity up to 50 μM, > = some inhibition but no MIC reached, read-out: MIC A. baumannii NCTC 13423) was > 50 µM and the MIC ([1]; supplementary molecular formula strings sheet, read-out: MIC (A. baumannii)) was > 50 µM. For the same compound, the “Average inhibition %, biofilms viability” value ([2]; 50 µM) was 27.9 ± 25.6%, the “Average inhibition %, planktonic cells viability” value ([2]; 50 µM) was 28 ± 9% and the “Average inhibition %, biofilms viability” value ([2]; 100 µM) was 20.3 ± 9.9%. The “Average inhibition %, planktonic cells viability” value ([2]; 100 µM) was 76.1 ± 19.4%, the “Average inhibition %, biofilms viability” value ([2]; 150 µM) was 17 ± 12.1% and the “Average inhibition %, planktonic cells viability” value ([2]; 150 µM) was 88 ± 8.4%. For the same compound, the “Average inhibition %, biofilms viability” value ([2]; 200 µM) was 12.2 ± 5.8%, the “Average inhibition %, planktonic cells viability” value ([2]; 200 µM) was 93.5 ± 0.6% and the MIC ([2]; ATCC9027, pre-exposure, Inactive = no activity up to 200 μM, > = some inhibition but no MIC reached, read-out: MIC P. aeruginosa ATCC 9027) was > 200 µM. The MIC ([2]; ATCC9027, supplementary molecular formula strings sheet, read-out: MIC (P. aeruginosa)) was > 200 µM, the inhibition at 50 µM [2, 11] was 14.7 ± 10.8% and the inhibition at 50 µM [2, 12] was 18.6 ± 7.4%. The inhibition at 100 µM ([2]; 100 µM, read-out: Average inhibition %, biofilms biomass) was 29.1 ± 19.9%, the inhibition at 100 µM ([2]; 100 µM, read-out: Average inhibition %, planktonic cells turbidity) was 83.9 ± 2.6% and the inhibition at 150 µM ([2]; 150 µM, read-out: Average inhibition %, biofilms biomass) was 37.8 ± 2.9%. For the same compound, the inhibition at 150 µM ([2]; 150 µM, read-out: Average inhibition %, planktonic cells turbidity) was 85.6 ± 3.3%, the inhibition at 200 µM ([2]; 200 µM, read-out: Average inhibition %, biofilms biomass) was 36.9 ± 6.7% and the inhibition at 200 µM ([2]; 200 µM, read-out: Average inhibition %, planktonic cells turbidity) was 87.8 ± 4.2%. For the same compound, the “Average inhibition %, biofilms viability” value ([3]; 25 µM) was 21 ± 14.6%, the “Average inhibition %, planktonic cells viability” value ([3]; 25 µM) was 0.9 ± 1.6% and the “Average inhibition %, biofilms viability” value ([3]; 50 µM) was 42.3 ± 5.5%. The “Average inhibition %, planktonic cells viability” value ([3]; 50 µM) was 0 ± 0%, the “Average inhibition %, biofilms viability” value ([3]; 100 µM) was 52.5 ± 9.2% and the “Average inhibition %, planktonic cells viability” value ([3]; 100 µM) was 21.3 ± 18.5%. For the same compound, the “Average inhibition %, biofilms viability” value ([3]; 200 µM) was 52 ± 9.4%, the “Average inhibition %, planktonic cells viability” value ([3]; 200 µM) was 48.3 ± 23.5% and the inhibition at 25 µM [3, 13] was 47.6 ± 0.5%. The inhibition at 25 µM [3, 14] was 9.3 ± 10%, the inhibition at 50 µM [3, 13] was 57.8 ± 6.5% and the inhibition at 50 µM [3, 14] was 12.6 ± 10.9%. For the same compound, the inhibition at 100 µM [3, 13] was 65.9 ± 12.5%, the inhibition at 100 µM [3, 14] was 31.2 ± 10.9% and the inhibition at 200 µM [3, 13] was 72.5 ± 9.8%. For the same compound, the inhibition at 200 µM [3, 14] was 40 ± 13.2%, the MIC ([4]; lowest concentration with no visible growth (>90% inhibition of turbidity and viability of planktonic cells), 18 h, read-out: MIC S. aureus ATCC 25923) was 15 to 25 µM (≈ 4.85 to 8.09 µg/mL) and the inhibition at 5 µM ([4]; 5 µM, read-out: Average inhibition %, biofilms biomass) was 28.7 ± 25.2%. For the same compound, the inhibition at 5 µM ([4]; 5 µM, read-out: Average inhibition %, planktonic cells turbidity) was 13.6 ± 13.1%, the inhibition at 10 µM [4, 5] was 31.9 ± 24.6% and the inhibition at 10 µM [4, 6] was 40.8 ± 18.5%. The inhibition at 15 µM [4, 7] was 53.1 ± 42.8%, the inhibition at 15 µM [4, 8] was 47.2 ± 50% and the inhibition at 25 µM [4, 9] was 92 ± 5.9%. For the same compound, the inhibition at 25 µM [4, 10] was 97.4 ± 2.6%, the MIC ([4]; read-out: MIC (S. aureus)) was 15 to 25 µM (≈ 4.85 to 8.09 µg/mL) and the “Average inhibition %, biofilms viability” value ([4]; 5 µM) was 22.4 ± 5.4%. For the same compound, the “Average inhibition %, planktonic cells viability” value ([4]; 5 µM) was 0 ± 0%, the “Average inhibition %, biofilms viability” value ([4]; 10 µM) was 16.7 ± 15% and the “Average inhibition %, planktonic cells viability” value ([4]; 10 µM) was 20.3 ± 20.7%. For the same compound, the “Average inhibition %, biofilms viability” value ([4]; 15 µM) was 48.8 ± 44.2%, the “Average inhibition %, planktonic cells viability” value ([4]; 15 µM) was 36.9 ± 54.3% and the “Average inhibition %, biofilms viability” value ([4]; 25 µM) was 99.5 ± 0.8%. The “Average inhibition %, planktonic cells viability” value ([4]; 25 µM) was 99.7 ± 0.2%.
